Source: paper PMC12062775, “Shifting the substrate scope of dimeric pyranose oxidase from monosaccharide to glycoside preference through oligomeric state modification” (The Febs Journal, 2025)

Assays:
KaPOx_xal = test system: T1, KaPOx_xal; assay: Amplex Red / horseradish peroxidase coupled oxidase assay, steady state; format: biochemical, Kitasatospora aureofaciens; conditions: air O2 ~250 μM, 50 mM Tris/HCl pH 7.5, 30 °C; read-out: [drawing 2] Phlorizin / K m/mM
T1 construct: gene KaPOx; KaPOx with arm domain and oligomerization loop replaced by ScPOx insertion-1 domain and flexible loop; C-terminal His6; pET-21a(+), E. coli T7 Express
From the text: Amplex Red / horseradish peroxidase coupled oxidase assay, steady state on KaPOx_xal

KaPOx_xalh = test system: T2, KaPOx_xalh; assay: as above; format: biochemical, Kitasatospora aureofaciens; conditions: air O2 ~250 μM, 50 mM Tris/HCl pH 7.5, 30 °C; read-out: [drawing 2] Phlorizin / K m/mM
T2 construct: gene KaPOx; C-terminal His6; pET-21a(+), E. coli T7 Express
From the text: Amplex Red / horseradish peroxidase coupled oxidase assay, steady state on KaPOx_xalh

Km (KaPOx_xal): 0.015 ± 0.002 mM
Km (KaPOx_xalh): 0.019 ± 0.003 mM
SMILES: O=C(CCc1ccc(O)cc1)c1c(O)cc(O)cc1O[C@@H]1O[C@H](CO)[C@@H](O)[C@H](O)[C@H]1O [Phlorizin]
